According to PMC5342759, “An inhibitor of cholesterol absorption displays anti-myeloma activity by targeting the JAK2-STAT3 signaling pathway” (Oncotarget, 2016):
pIC50: −log10 of the molar value.

Experiments:
Experiment in all cases: HotSpot radiometric kinase assay, purified recombinant human kinase, 10-dose IC50
Type in all cases: biochemical
[1] = target: JAK2 (Homo sapiens, UniProt O60674)
[2] = target: TYK2 (Homo sapiens, UniProt P29597)
[3] = target: JAK1 (Homo sapiens, UniProt P23458)
[4] = target: T1, JAK3 (Homo sapiens, UniProt P52333)
T1 sequence (P52333 1-1124): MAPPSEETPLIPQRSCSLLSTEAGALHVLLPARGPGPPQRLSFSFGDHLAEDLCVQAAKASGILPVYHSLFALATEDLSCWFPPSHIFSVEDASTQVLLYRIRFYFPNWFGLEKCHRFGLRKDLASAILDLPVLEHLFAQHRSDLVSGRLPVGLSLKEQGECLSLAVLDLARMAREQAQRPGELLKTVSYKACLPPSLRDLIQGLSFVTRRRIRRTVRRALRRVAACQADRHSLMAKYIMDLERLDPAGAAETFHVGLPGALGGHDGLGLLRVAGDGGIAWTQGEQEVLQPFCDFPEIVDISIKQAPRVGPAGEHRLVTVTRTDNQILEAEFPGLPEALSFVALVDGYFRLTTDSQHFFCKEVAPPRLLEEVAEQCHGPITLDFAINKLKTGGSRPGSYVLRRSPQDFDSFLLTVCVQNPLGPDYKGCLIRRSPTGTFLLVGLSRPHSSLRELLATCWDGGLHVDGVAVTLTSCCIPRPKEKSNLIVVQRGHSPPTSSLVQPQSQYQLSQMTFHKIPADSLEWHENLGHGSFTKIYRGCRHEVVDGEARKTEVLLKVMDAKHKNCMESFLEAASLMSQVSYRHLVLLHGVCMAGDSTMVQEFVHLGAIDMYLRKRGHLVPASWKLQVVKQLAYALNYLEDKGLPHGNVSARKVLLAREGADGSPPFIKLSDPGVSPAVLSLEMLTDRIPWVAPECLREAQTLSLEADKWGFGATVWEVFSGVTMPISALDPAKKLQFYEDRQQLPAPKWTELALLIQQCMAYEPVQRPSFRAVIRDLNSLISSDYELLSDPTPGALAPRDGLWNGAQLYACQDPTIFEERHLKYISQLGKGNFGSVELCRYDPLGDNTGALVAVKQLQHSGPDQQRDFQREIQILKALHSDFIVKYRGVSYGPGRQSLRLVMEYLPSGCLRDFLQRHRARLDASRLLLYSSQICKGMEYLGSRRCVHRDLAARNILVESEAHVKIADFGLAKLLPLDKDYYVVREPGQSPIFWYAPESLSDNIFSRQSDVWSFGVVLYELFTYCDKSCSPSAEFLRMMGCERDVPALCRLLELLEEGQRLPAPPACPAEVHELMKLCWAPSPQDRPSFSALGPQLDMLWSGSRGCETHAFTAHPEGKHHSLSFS

Chain of JAK1 (P23458 whole entry): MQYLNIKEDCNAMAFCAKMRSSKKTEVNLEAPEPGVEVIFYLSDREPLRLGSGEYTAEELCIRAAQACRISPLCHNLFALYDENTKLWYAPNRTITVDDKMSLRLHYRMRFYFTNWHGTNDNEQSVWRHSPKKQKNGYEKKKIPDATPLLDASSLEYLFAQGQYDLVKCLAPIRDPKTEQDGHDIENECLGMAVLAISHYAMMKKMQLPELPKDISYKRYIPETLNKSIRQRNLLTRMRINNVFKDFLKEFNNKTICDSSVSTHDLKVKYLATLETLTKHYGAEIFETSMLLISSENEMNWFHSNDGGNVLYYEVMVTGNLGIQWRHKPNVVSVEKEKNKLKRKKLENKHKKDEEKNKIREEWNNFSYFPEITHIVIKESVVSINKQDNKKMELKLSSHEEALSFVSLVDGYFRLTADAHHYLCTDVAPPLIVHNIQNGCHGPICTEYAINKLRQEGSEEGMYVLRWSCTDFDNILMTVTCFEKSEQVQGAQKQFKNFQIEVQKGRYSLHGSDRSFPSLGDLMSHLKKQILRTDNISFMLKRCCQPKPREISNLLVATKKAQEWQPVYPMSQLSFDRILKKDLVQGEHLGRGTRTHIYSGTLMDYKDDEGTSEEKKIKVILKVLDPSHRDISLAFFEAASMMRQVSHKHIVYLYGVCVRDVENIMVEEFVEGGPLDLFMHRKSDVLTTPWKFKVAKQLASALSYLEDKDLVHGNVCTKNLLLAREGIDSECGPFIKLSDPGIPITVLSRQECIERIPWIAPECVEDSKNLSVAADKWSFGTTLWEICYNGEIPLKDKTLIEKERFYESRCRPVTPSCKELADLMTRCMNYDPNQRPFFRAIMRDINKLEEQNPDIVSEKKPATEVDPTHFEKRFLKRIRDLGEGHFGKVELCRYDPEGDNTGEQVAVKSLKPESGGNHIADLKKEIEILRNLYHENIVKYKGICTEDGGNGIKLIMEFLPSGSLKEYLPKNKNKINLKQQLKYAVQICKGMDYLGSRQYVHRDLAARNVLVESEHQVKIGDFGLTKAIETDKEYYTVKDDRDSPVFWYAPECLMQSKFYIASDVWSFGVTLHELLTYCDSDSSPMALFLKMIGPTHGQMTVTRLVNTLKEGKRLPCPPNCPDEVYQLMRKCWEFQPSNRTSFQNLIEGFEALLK
Chain of TYK2 (P29597 whole entry): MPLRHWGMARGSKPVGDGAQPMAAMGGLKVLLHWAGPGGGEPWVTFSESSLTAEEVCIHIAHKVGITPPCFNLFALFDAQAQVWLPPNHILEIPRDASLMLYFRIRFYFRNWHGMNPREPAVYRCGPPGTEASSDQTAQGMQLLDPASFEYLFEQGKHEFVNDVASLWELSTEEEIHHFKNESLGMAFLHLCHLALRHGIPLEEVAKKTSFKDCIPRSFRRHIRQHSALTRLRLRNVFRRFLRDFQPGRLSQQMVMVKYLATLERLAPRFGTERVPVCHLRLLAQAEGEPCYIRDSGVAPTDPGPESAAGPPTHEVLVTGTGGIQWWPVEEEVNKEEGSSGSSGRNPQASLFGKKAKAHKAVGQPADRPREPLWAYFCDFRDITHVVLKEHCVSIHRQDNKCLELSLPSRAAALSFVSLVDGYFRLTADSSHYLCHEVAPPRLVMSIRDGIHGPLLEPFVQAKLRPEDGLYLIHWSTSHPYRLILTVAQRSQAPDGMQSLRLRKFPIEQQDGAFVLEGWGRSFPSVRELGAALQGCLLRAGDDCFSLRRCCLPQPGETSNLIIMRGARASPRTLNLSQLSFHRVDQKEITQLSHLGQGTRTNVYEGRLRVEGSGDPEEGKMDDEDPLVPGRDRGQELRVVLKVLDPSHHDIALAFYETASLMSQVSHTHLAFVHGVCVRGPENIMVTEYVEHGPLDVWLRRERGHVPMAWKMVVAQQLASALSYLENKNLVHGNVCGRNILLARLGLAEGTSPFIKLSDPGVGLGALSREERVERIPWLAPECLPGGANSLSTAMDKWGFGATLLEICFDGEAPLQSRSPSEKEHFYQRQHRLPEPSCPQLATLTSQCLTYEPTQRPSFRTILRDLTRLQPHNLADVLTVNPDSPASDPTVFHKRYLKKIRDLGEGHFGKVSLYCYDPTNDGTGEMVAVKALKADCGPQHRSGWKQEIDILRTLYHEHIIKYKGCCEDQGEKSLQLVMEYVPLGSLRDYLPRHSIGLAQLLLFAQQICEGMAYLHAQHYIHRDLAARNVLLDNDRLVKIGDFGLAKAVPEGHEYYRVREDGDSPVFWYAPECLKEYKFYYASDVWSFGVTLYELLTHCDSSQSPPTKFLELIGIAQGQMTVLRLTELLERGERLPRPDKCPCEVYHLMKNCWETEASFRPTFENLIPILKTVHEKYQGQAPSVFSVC
Chain of JAK2 (O60674 whole entry): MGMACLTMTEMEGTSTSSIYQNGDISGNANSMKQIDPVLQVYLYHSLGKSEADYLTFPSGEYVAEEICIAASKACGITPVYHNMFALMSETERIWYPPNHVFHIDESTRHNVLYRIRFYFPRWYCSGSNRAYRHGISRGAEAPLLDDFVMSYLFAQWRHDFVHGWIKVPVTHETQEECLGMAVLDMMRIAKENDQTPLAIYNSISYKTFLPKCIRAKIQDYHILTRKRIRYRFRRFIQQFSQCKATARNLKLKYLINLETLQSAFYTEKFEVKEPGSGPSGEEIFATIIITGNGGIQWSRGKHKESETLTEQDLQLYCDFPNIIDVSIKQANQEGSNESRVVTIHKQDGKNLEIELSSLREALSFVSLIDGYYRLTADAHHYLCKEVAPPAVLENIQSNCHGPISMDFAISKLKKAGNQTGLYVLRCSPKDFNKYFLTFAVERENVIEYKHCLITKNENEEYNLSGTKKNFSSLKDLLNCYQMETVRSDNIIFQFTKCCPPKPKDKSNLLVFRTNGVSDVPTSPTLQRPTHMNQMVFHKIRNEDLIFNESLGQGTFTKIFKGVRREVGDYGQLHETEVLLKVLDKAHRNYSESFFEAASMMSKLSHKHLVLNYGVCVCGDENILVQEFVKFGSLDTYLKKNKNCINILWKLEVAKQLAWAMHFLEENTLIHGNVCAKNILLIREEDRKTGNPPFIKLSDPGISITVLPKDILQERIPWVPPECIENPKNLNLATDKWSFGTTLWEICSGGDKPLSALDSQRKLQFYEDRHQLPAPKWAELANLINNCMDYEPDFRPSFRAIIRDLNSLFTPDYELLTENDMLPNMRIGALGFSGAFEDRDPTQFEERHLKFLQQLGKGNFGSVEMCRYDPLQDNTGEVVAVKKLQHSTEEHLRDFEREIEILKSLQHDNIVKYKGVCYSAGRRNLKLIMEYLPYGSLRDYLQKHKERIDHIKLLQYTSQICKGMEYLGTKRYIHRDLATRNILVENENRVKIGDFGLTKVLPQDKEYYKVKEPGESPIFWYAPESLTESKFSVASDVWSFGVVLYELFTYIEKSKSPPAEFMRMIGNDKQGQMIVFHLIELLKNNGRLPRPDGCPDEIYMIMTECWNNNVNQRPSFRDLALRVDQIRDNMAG

N#C/C(=N\Nc1ccc(C(F)(F)F)cc1)S(=O)(=O)c1cccs1 [SC09] was tested. Which pIC50 [1] did it give?
The pIC50 was 5.05.

And the pIC50 [2]?
Its pIC50 is 3.95.

And the pIC50 [3]?
The pIC50 was 3.82.

And the pIC50 [4]?
Its pIC50 is 3.86.
